Test results taken from article PMC6979384, “Characterization of the plant homeodomain (PHD) reader family for their histone tail interactions” (Epigenetics & Chromatin, 2020).
Entries after “also recorded” stand apart in the source; their conditions may differ. Where two headings read alike, the source gives them in different places.

How the values were obtained:
PHD finger of MLL5 = details: cited from earlier work
Excerpt: Our findings from domain and peptide microarray confirm the reported binding preferences of many PHD proteins such as those of the ING and PHF families. […] We surmise that the basis of this differenc ...

MLL5 PHD finger = test: PHD finger domain microarray; type: binding, human
Excerpt: (§1) To define the histone binding preferences of the PHD finger proteome, we expressed and purified 123 annotated human PHD-containing domains as GST-tagged recombinant fusions from E. coli. The recombinant proteins consisted of either PHD fingers in isolation, or as tandem domains if a given PHD finger was located adjacent to another reader domain (e.g., one or more PHD fingers, Tudor, chromo and/or bromodomains) (Additional file 1: Table S1). These GST fusions were printed in duplicate on nitrocellulose-coated microarray slides and probed with biotinylated peptides that represented the N-termini of H3, H4, H2A or H2B (Fig. 1a and Additional file 2: Figure S1). As the majority of PHD readers thus far characterized are H3K4me0/3 readers, we included additional peptides (H3K4 as either mono-, di-, or trimethylated) to further determine any H3K4 methyl preference (Additional file 2: Figure S2 and Fig. 1b). As a control, we also probed these microarrays with an α-Tubulin peptide (a.a. 30–50) that would not be predicted to interact with PHD fingers (Additional file 2: Figure S1). […] We also cannot exclude the possibility that some PHD fingers might not be functionally active on the microarrays (perhaps due to misfolding or the lack of an important adjacent region).
(§2) The protein domain microarray was designed to include 123 GST-tagged PHD-domain containing recombinant proteins. Protein domain microarray development and probing was as previously. Briefly, recombinant proteins were synthesized and cloned into pGEX-4T-1 vector by Biomatik Corporation. These GST-PHD readers were subsequently expressed, purified, and spotted in duplicate onto nitrocellulose-coated glass slides (Oncyte Avid slides, Grace Bio-Labs) using a pin arrayer (Aushon 2470, Aushon). For probing, microarray slides were blocked with 3% milk, 3% bovine serum albumin, 0.1% Tween 20 in PBS. Biotinylated peptides were pre-labeled with streptavidin-Cy3 fluorophore (GE Healthcare) and incubated with the blocked array slides. Slides were then washed with PBST and allowed to air dry. Fluorescent interactions were visualized using a GenePix 4200A Microarray Scanner (Molecular Devices).

KDM7A PHD finger = test: Peptide pulldown (immunoblot); type: binding, human; details: n = 2
Procedure: (§3) The 31 GST-tagged PHD readers identified in the PHD finger domain array were expressed and purified as previously. Histone peptide arrays and peptide pulldown assays were conducted as recently described (specifically, the optimized protocol from Petell et al. for the former).
(§4) Figure S5. Peptide Pulldowns with KDM7A and KDM5B (PPC2W2). Representative immunoblot analysis of peptide pulldowns for the PHD fingers of KDM7A and KDM5B (PHD1) with the peptides indicated on the top of the image (n=2).

KDM5B (PHD3) = test: PHD finger domain microarray; type: binding, human
Excerpt: as §1, §2

CHD5 (PCC) = test: PHD finger domain microarray; type: binding, human
Excerpt: as §1, §2

PHRF1 (RP) [1] = test: PHD finger domain microarray; type: binding, human
Excerpt: as §1, §2

CHD4 (PPCC) = test: dCypher AlphaScreen Phase B (full peptide screen); type: binding, human; details: reader 0.65 nM, 100 nM peptide, 23 °C, n = 2
Procedure: (§5) X-axes are log(protein concentration (M)) at constant peptide concentration (100 nM); Y-axes are AlphaScreen counts, representing relative strength of binding (n = 2; error bars are S.D.). i Heat map represents relative binding to H3 N-terminal peptides (left) by PHD-containing GST-tagged proteins (top) using the dCypher AlphaScreen platform. Protein concentrations can be found in Additional file 5: Table S4. Binding strength is indicated by color gradient from green to yellow (stronger to weaker). […] Alpha counts (n = 2) were normalized individually for each protein to the highest signal for each respective assay. For full dCypher peptide screen data, see Additional file 4: Table S3
(§6) Once the optimal protein concentration ranges for each of the eight readers were determined, we conducted the full dCypher peptide screen (293 histone peptides) (Fig. 3i; Additional file 4: Table S3).
(§7) The dCypher peptide screen assay was performed as previously described. Briefly, 5 μL of GST-tagged reader domains (optimal protein concentration for library screening determined by initial binding curves to candidate peptides) were incubated with 5 μL of 400 nM (100 nM Final) biotinylated histone peptides (EpiCypher) for 30 min at 23 °C in 1× AlphaLISA Epigenetics buffer + epigenetics buffer supplement (PerkinElmer, AL1008) in a 384-well plate. A 10 μL mix of 5 µg/mL (2.5 μg/mL final) glutathione Acceptor beads (PerkinElmer, AL109M) and 10 μg/mL (5 μg/mL final) streptavidin Donor beads (PerkinElmer, 6760002) was prepared in 1× [Epigenetics buffer + supplement] and added to each well. Plates were incubated at 23 °C in subdued lighting for 60 min and AlphaLISA signal measured on a PerkinElmer 2104 EnVision (680 nm laser excitation, 570 nm emission filter ± 50 nm bandwidth).
(§8) Supplementary file 13072_2020_328_MOESM4_ESM.xlsx: Additional file 4: Table S3. dCypher Results. Excel Tab Peptide Phase A is a compiled set of binding data: chromatin reader titration vs. several peptide targets. Data is presented as raw Alpha counts in duplicates at each concentration tested. Excel Tab Peptide Phase B is a compiled set of binding data: chromatin reader at optimized concentrations vs. entire 293 peptide library. Data is presented as the average and standard deviation of duplicates. […] Key: red = strong binding; blue = weak/no binding.

PHRF1 (RP) [2] = test: dCypher AlphaScreen Phase B (full peptide screen); type: binding, human; details: reader 15 nM, 100 nM peptide, 23 °C, n = 2
Procedure: as §5, §6, §7, §8

KDM5B (PHD1) = test: Peptide pulldown (immunoblot); type: binding, human; details: n = 2
Procedure: as §3, §4

CHD4 = details: cited from earlier work
Excerpt: Plant homeodomain fingers comprise one of the largest families of reader domains, with over 100 human proteins containing this module. PHD fingers are Zn-coordinating domains that generally recognize unmodified or methylated lysines. To date, the majority of those characterized bind to histone H3 tails either methylated at K4 [7], or unmodified in that position (i.e., KDM5B PHD3 versus KDM5B PHD1 [10, 11] or PHF21A, also known as BHC80 [12]).

In the case of H3K4me2: H3 1-20 [Peptide H3K4me2], the reported binding (PHD finger of MLL5) is listed as “discrepancies in whether the PHD finger of MLL5 is a H3K4me3 or H3K4me2 reader” and the binding preference (MLL5 PHD finger) is listed as “strong preference”.
In the case of H3K4me3: H3 1-20 [Peptide H3K4me3], the “binding in peptide pulldown” value (KDM7A PHD finger) is given as “binds H3K4me3”, the reported binding (PHD finger of MLL5) is given as “discrepancies in whether the PHD finger of MLL5 is a H3K4me3 or H3K4me2 reader” and the binding preference (KDM5B (PHD3)) is given as “consistent with their current classification as H3K4me3 binders; also recorded: no preference”. The binding preference (CHD5 (PCC)) was “no preference”, the binding preference (MLL5 PHD finger) was “strong preference” and the binding preference (PHRF1 (RP) [1]) was “no preference”.
For “H3 (1-20): unmodified H3 N-terminal peptide (1–20)”, the binding (CHD4 (PPCC)) was “clearer specificity for the H3K4me0 peptide over the methylated species”, the binding (PHRF1 (RP) [2]) was “more limited interactions” and the “binding in peptide pulldown” value (KDM5B (PHD1)) was “reads H3K4me0”. For the same substance, the binding preference (KDM5B (PHD3)) was “no preference”, the binding preference (CHD5 (PCC)) was “no preference” and the binding preference (PHRF1 (RP) [1]; listed as H3K4me0) was “no preference on the domain array”. For the same substance, the binding preference (PHRF1 (RP) [1]; listed as unmodified H3 tail) was “readers of the unmodified H3 tail”.
In the case of H3K9me3: H3 1-20 [Peptide H3K9me3], the binding (CHD4 (PPCC)) is listed as “ability to bind to the peptides containing H3K9me3”, the binding (PHRF1 (RP) [2]) is listed as “more limited interactions” and the reported binding (CHD4) is listed as “annotated to recognize H3K9me3; also recorded: reported as readers of H3K9 trimethylation”.
